Test results taken from PubChem BioAssay AID328 (DTP/NCI, 2004).
“And” between values parts separate entries of the source, which are not always exact repeats. Equal values may be shown once. Inconclusive results and toxic doses are left out.

Test system: BDF1 mice, P388 leukemia ip, median survival T/C
Test: NCI In Vivo Anticancer Drug Screen. Data for tumor model P388 Leukemia (intraperitoneal) in B6D2F1 (BDF1) mice
Conditions: endpoint: median survival time, higher = longer survival
How it was run: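 Steps: implant the tumour, treat one group with compound and another with vehicle, record survival, then divide treated by control.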

[1] = dose: 25.0 mg/kg/injection, schedule: Q01DX009 (ip), vehicle: Klucel (hydroxypropylcellulose) (HPC)
[2] = dose: 50.0 mg/kg/injection, schedule: Q01DX009 (ip), vehicle: Klucel (hydroxypropylcellulose) (HPC)
[3] = dose: 100.0 mg/kg/injection, schedule: Q01DX009 (ip), vehicle: Klucel (hydroxypropylcellulose) (HPC)

CCCCCCOP(=O)(CCCCCC)OCCCCCC
T/C [1]: 108 % of control | T/C (dose: 25.0 mg/kg/injection, schedule: Q04DX003 (ip), vehicle: Klucel (hydroxypropylcellulose) (HPC)): 100 % of control | T/C [2]: 104 % of control | T/C (dose: 50.0 mg/kg/injection, schedule: Q04DX003 (ip), vehicle: Klucel (hydroxypropylcellulose) (HPC)): 95 % of control | T/C [3]: 113 % of control | T/C (dose: 100.0 mg/kg/injection, schedule: Q04DX003 (ip), vehicle: Klucel (hydroxypropylcellulose) (HPC)): 100 % of control

O=C(C=C(C(F)(F)F)C(F)(F)F)c1ccc(Cl)cc1
T/C (dose: 6.25 mg/kg/injection, schedule: Q01DX009 (ip), vehicle: saline with Tween-80): 100 % of control | T/C (dose: 12.5 mg/kg/injection, schedule: Q01DX009 (ip), vehicle: saline with Tween-80): 100 % of control | T/C (dose: 25.0 mg/kg/injection, schedule: Q01DX009 (ip), vehicle: saline with Tween-80): 118 % of control

COc1ccc(CC2c3cc(OC)c(OC)cc3CCN2C(C)=O)cc1OC (stereo not given)
T/C (dose: 50.0 mg/kg/injection, schedule: Q01DX005 (ip), vehicle: saline with Tween-80): 90 % of control | T/C (dose: 200.0 mg/kg/injection, schedule: Q01DX005 (ip), vehicle: saline with Tween-80): 88 % of control

COc1cccc(C(O)c2ccncc2)c1OC (stereo not given)
T/C (dose: 25.0 mg/kg/injection, schedule: Q04DX003 (ip), vehicle: water): 113 % of control | T/C (dose: 50.0 mg/kg/injection, schedule: Q04DX003 (ip), vehicle: water): 108 % of control | T/C (dose: 100.0 mg/kg/injection, schedule: Q04DX003 (ip), vehicle: water): 103 % of control | T/C (dose: 200.0 mg/kg/injection, schedule: Q04DX003 (ip), vehicle: water): 90 % of control | T/C (dose: 400.0 mg/kg/injection, schedule: Q04DX003 (ip), vehicle: water): 97 % of control

Cc1ccc(C(=O)[O][Hg][CH2]C2COC([CH2][Hg][O]C(=O)c3ccc(C)cc3)CO2)cc1 (stereo not given)
T/C (dose: 2.25 mg/kg/injection, schedule: Q01DX009 (ip), vehicle: saline with Tween-80): 90 % of control | T/C (dose: 6.25 mg/kg/injection, schedule: Q01DX009 (ip), vehicle: saline sonified): 110 % of control | T/C (dose: 6.25 mg/kg/injection, schedule: Q04DX003 (ip), vehicle: saline with Tween-80): 107 % of control | T/C (dose: 12.5 mg/kg/injection, schedule: Q04DX003 (ip), vehicle: saline with Tween-80): 107 % of control | T/C [1]: 109 % of control | T/C (dose: 25.0 mg/kg/injection, schedule: Q01DX009 (ip), vehicle: saline sonified): 150 % of control | T/C (dose: 25.0 mg/kg/injection, schedule: Q04DX003 (ip), vehicle: saline with Tween-80): 103 % of control | T/C [2]: 109 % of control | T/C [3]: 86 % of control | T/C (dose: 225.0 mg/kg/injection, schedule: Q04DX003 (ip), vehicle: Klucel (hydroxypropylcellulose) (HPC)): 109 % of control

CC1C=NNC1=O (stereo not given)
T/C (dose: 100.0 mg/kg/injection, schedule: Q01DX001 (ip), vehicle: saline with Tween-80): 95 % of control and 118 % of control | T/C (dose: 175.0 mg/kg/injection, schedule: Q01DX001 (ip), vehicle: saline with Tween-80): 100 % of control | T/C (dose: 176.0 mg/kg/injection, schedule: Q01DX009 (ip), vehicle: Klucel (hydroxypropylcellulose) (HPC)): 120 % of control | T/C (dose: 200.0 mg/kg/injection, schedule: Q01DX001 (ip), vehicle: saline with Tween-80): 104 % of control | T/C (dose: 265.0 mg/kg/injection, schedule: Q01DX001 (ip), vehicle: saline with Tween-80): 100 % of control | T/C (dose: 400.0 mg/kg/injection, schedule: Q01DX001 (ip), vehicle: saline with Tween-80): 100 % of control | T/C (dose: 600.0 mg/kg/injection, schedule: Q01DX001 (ip), vehicle: saline with Tween-80): 109 % of control

COc1ccc(C=Nc2cccc3ccccc23)cc1
T/C (dose: 100.0 mg/kg/injection, schedule: Q01DX001 (ip), vehicle: saline sonified): 100 % of control | T/C (dose: 200.0 mg/kg/injection, schedule: Q01DX001 (ip), vehicle: saline sonified): 100 % of control | T/C (dose: 400.0 mg/kg/injection, schedule: Q01DX001 (ip), vehicle: saline sonified): 104 % of control

C[C@]12C=CC(=O)C=C1CC[C@@H]1[C@@H]2C(=O)C[C@@]2(C)[C@H]1CC[C@]2(O)C(=O)CO
T/C (dose: 0.8 mg/kg/injection, schedule: Q01DX009 (ip), vehicle: carboxymethylcellulose (CMC)): 90 % of control | T/C (dose: 1.6 mg/kg/injection, schedule: Q01DX009 (ip), vehicle: carboxymethylcellulose (CMC)): 99 % of control | T/C (dose: 3.12 mg/kg/injection, schedule: Q01DX009 (ip), vehicle: carboxymethylcellulose (CMC)): 99 % of control | T/C (dose: 6.25 mg/kg/injection, schedule: Q01DX009 (ip), vehicle: carboxymethylcellulose (CMC)): 89 % of control and 103 % of control | T/C (dose: 6.25 mg/kg/injection, schedule: Q03HX008 (ip), vehicle: saline): 107 % of control | T/C (dose: 6.25 mg/kg/injection, schedule: Q03HX016 (ip), vehicle: saline): 100 % of control | T/C (dose: 6.25 mg/kg/injection, schedule: Q03HX024 (ip), vehicle: saline): 100 % of control | T/C (dose: 12.5 mg/kg/injection, schedule: Q01DX009 (ip), vehicle: carboxymethylcellulose (CMC)): 87 % of control and 89 % of control | T/C (dose: 12.5 mg/kg/injection, schedule: Q03HX008 (ip), vehicle: saline): 100 % of control | T/C (dose: 12.5 mg/kg/injection, schedule: Q03HX016 (ip), vehicle: saline): 100 % of control | T/C (dose: 12.5 mg/kg/injection, schedule: Q03HX024 (ip), vehicle: saline): 87 % of control | T/C (dose: 25.0 mg/kg/injection, schedule: Q03HX008 (ip), vehicle: saline): 100 % of control | T/C (dose: 25.0 mg/kg/injection, schedule: Q03HX016 (ip), vehicle: saline): 100 % of control | T/C (dose: 25.0 mg/kg/injection, schedule: Q03HX024 (ip), vehicle: saline): 87 % of control | T/C (dose: 44.0 mg/kg/injection, schedule: Q04DX003 (sc), vehicle: Klucel (hydroxypropylcellulose) (HPC)): 113 % of control | T/C (dose: 50.0 mg/kg/injection, schedule: Q01DX001 (ip), vehicle: saline): 107 % of control | T/C (dose: 50.0 mg/kg/injection, schedule: Q01DX009 (ip), vehicle: carboxymethylcellulose (CMC)): 90 % of control and 93 % of control | T/C (dose: 50.0 mg/kg/injection, schedule: Q03HX008 (ip), vehicle: saline): 100 % of control | T/C (dose: 50.0 mg/kg/injection, schedule: Q03HX016 (ip), vehicle: saline): 107 % of control | T/C (dose: 50.0 mg/kg/injection, schedule: Q03HX024 (ip), vehicle: saline): 87 % of control | T/C (dose: 50.0 mg/kg/injection, schedule: Q04DX003 (ip), vehicle: saline): 93 % of control | T/C (dose: 50.0 mg/kg/injection, schedule: Q08DX002 (ip), vehicle: saline): 87 % of control | T/C (dose: 67.0 mg/kg/injection, schedule: Q04DX003 (sc), vehicle: Klucel (hydroxypropylcellulose) (HPC)): 114 % of control | T/C (dose: 100.0 mg/kg/injection, schedule: Q01DX001 (ip), vehicle: saline): 114 % of control | T/C (dose: 100.0 mg/kg/injection, schedule: Q03HX008 (ip), vehicle: saline): 100 % of control | T/C (dose: 100.0 mg/kg/injection, schedule: Q03HX016 (ip), vehicle: saline): 114 % of control | T/C (dose: 100.0 mg/kg/injection, schedule: Q03HX024 (ip), vehicle: saline): 87 % of control | T/C (dose: 100.0 mg/kg/injection, schedule: Q04DX003 (ip), vehicle: saline): 106 % of control | T/C (dose: 100.0 mg/kg/injection, schedule: Q04DX003 (sc), vehicle: Klucel (hydroxypropylcellulose) (HPC)): 113 % of control | T/C (dose: 100.0 mg/kg/injection, schedule: Q08DX002 (ip), vehicle: saline): 87 % of control | T/C (dose: 200.0 mg/kg/injection, schedule: Q01DX001 (ip), vehicle: saline): 114 % of control | T/C (dose: 200.0 mg/kg/injection, schedule: Q04DX003 (ip), vehicle: saline): 100 % of control | T/C (dose: 200.0 mg/kg/injection, schedule: Q08DX002 (ip), vehicle: saline): 100 % of control | T/C (dose: 400.0 mg/kg/injection, schedule: Q01DX001 (ip), vehicle: saline): 121 % of control | T/C (dose: 400.0 mg/kg/injection, schedule: Q04DX003 (ip), vehicle: saline): 106 % of control | T/C (dose: 400.0 mg/kg/injection, schedule: Q08DX002 (ip), vehicle: saline): 87 % of control | T/C (dose: 800.0 mg/kg/injection, schedule: Q01DX001 (ip), vehicle: saline): 121 % of control | T/C (dose: 800.0 mg/kg/injection, schedule: Q04DX003 (ip), vehicle: saline): 106 % of control | T/C (dose: 800.0 mg/kg/injection, schedule: Q08DX002 (ip), vehicle: saline): 100 % of control
